Marks after values point to notes of the source that are not given here.
Assays:
human AChE [hAChE] = human AChE [hAChE] (Homo sapiens, UniProt P22303); assay: biochemical; conditions: for IC50: Human AChE, Ellman method, read-out: IC50(nM) ± SD AChE (hAChE) (converted); for SI: SI = EqBChE IC50/hAChE
Experimental: (§1) The anticholinesterase activity was determined using Ellman’s method, adapted as follows. […] Subsequently, 60 μL of 5,5′-dithiobis(2-nitrobenzoic acid) (DTNB, 1.1 mM) and 30 μL of enzyme solution (electric eel AChE [EeAChE], human AChE [hAChE], or equine serum BChE [EqBChE], 0.20 U/mL) containing 1 mg/mL bovine serum albumin (BSA) were added. […] Enzyme activity was calculated as the percentage relative to untreated controls, subtracting the blank reference. IC50 values were derived via non-linear regression analysis of dose–response curves (Figure S4) using GraphPad Prism v7.0.

[1] = target: T1, equine serum BChE [EqBChE] (Equus caballus, UniProt P81908); assay: biochemical; conditions: Ellman method, read-out: IC50(nM) ± SD BChE (EqBChE)
T1 construct: equine serum BChE [EqBChE]; from tissue; host or cells: equine serum
Experimental: as §1

[2] = system: H2O2-damaged SH-SY5Y cells; assay: In vitro neuroprotection against H2O2 in SH-SY5Y (MTT); conditions: for viability at 12.5 µM: Homo sapiens, SH-SY5Y, read-out: Cell viability (% of control)
Experimental: For the neuroprotection assay, the cells previously cultured (Section 3.4.1) were seeded in 96-well plates at a density of 5 × 10^4 cells/well in a volume of 200 µL. The plates were incubated at 37 °C containing 5% CO2 for 24 h. After 24 h, the medium was replaced with the test solutions. […] Finally, the test solutions were removed, the cells were washed with PBS pH 7.4, and the H2O2 solution was added and maintained in contact with the cells for 24 h. After 24 h exposure, the neuroprotective capacity was assessed through cell viability using the MTT assay protocol previously described in Section 3.4.3 [52, 53].

hMAO-A = target: T2, hMAO-A (Homo sapiens, UniProt P21397); assay: MAO-A inhibition, fluorometric Amplex Red assay; assay type: biochemical
T2 construct: purchased Sigma-Aldrich, Gillingham, UK
T2 sequence (P21397 1-527): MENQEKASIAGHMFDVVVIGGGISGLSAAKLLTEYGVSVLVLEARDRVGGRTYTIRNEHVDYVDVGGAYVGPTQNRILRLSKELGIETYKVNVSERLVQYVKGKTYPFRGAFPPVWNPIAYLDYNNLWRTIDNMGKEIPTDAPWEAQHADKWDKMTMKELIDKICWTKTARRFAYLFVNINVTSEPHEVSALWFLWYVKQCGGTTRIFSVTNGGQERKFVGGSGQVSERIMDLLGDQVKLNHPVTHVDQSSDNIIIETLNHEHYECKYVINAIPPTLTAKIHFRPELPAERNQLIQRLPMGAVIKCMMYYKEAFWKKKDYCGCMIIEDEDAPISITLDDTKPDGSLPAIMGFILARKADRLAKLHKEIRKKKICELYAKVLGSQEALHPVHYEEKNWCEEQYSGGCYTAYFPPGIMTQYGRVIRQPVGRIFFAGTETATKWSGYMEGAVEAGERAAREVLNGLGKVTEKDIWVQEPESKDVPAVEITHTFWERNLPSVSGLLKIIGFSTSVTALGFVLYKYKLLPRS
Experimental: The activity of human recombinant membrane-bound monoamine oxidase isoforms A and B (MAO-A/B) (Sigma-Aldrich, Gillingham, UK) in 50 mM potassium phosphate buffer (pH 7.5) was determined by measuring hydrogen peroxide production coupled to the fluorescent dye Amplex Red (Sigma-Aldrich, UK) at a final concentration of 50 μM, in the presence of horseradish peroxidase (HRP, 2.5 U/mL). This coupling reaction generates the fluorescent product resorufin, which was quantified at 30 °C using a fluorescence plate reader. […].
Reactions were initiated by adding the substrate and dye after a 30 min preincubation of the inhibitor with the enzyme. Data were analyzed using a three-parameter equation in GraphPad Prism 7.0 (San Diego, USA). Each reported value represents the mean of at least two independent determinations.

[3] = target: electric eel AChE [EeAChE] (Electrophorus electricus, UniProt O42275); assay: biochemical; assay type: biochemical; conditions: for IC50: Electric eel AChE, Ellman method, read-out: IC50(nM) ± SD AChE (EeAChE); for SI: Selectivity Index = EqBChE IC50/EeAChE IC50
Experimental: as §1

hH3R = target: T3, hH3R (Homo sapiens, UniProt Q9Y5N1); assay: H3R radioligand displacement assay ([3H]-N-α-methylhistamine); assay type: binding; conditions: 95% confidence interval in brackets; HEK-293 membranes
T3 construct: expressed in transfected cells; host or cells: HEK-293
Experimental: HEK-293 cells (human embryonic kidney cells) stably expressing hH3R were washed and harvested in PBS buffer (phosphate-buffered saline). […] The cell membrane homogenate was centrifuged (20,000× g, 20 min, 4 °C), and the resulting pellet was resuspended in binding buffer and stored at −80 °C until use.
Prior to experiments, the cell membranes were thawed, homogenized by sonication at 4 °C, and kept in ice-cold binding buffer. Crude membrane extracts (20 μg/well in a final volume of 0.2 mL binding buffer) were incubated with [^3H]-N-α-methylhistamine (2 nM; 78.3 Ci/mmol) and varying concentrations of test compounds. Assays were performed in duplicate, with compound concentrations ranging from 0.01 nM to 100 μM. Incubations proceeded for 90 min at room temperature under continuous agitation.
Bound radioligand was separated from free radioligand by filtration through GF/B filters pretreated with 0.3% (w/v) polyethyleneimine, using a cell harvester. Radioactivity was quantified by liquid scintillation counting. Data were analyzed using GraphPad Prism v8 (San Diego, CA, USA) software, employing non-linear regression analysis.

Chain of human AChE [hAChE] (P22303 32-614): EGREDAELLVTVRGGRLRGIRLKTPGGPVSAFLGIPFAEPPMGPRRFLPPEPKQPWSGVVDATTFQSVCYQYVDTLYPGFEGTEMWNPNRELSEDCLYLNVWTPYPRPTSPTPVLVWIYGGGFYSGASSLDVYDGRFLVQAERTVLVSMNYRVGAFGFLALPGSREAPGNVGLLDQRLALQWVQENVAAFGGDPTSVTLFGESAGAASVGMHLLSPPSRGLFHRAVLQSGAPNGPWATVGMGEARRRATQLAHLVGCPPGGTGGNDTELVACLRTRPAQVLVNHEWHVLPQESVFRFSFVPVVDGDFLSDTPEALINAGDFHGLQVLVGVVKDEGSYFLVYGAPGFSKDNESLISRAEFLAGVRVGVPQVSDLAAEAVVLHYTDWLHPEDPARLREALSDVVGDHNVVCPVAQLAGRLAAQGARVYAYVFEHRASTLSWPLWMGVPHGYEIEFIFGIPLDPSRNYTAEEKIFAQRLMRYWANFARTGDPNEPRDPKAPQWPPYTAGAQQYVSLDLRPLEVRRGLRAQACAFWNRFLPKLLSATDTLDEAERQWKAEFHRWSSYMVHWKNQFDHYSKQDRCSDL
Chain of electric eel AChE [EeAChE] (O42275 24-633): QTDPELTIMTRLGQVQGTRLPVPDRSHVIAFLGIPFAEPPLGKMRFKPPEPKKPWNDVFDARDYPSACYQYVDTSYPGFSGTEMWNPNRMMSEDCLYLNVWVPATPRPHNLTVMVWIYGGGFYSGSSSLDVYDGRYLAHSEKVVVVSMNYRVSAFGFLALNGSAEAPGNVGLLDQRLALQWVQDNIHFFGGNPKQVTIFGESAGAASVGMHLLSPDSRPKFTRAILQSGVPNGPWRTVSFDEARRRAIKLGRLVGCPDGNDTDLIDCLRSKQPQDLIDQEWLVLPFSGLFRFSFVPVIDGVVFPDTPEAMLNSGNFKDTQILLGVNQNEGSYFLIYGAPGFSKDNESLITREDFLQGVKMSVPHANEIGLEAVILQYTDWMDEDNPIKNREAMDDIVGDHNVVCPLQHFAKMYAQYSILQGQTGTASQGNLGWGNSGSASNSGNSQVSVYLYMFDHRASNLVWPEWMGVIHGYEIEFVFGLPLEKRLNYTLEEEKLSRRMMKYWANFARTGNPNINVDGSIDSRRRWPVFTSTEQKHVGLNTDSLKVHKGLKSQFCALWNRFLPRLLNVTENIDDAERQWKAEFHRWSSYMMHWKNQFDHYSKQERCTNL
T1 sequence (P81908 whole entry): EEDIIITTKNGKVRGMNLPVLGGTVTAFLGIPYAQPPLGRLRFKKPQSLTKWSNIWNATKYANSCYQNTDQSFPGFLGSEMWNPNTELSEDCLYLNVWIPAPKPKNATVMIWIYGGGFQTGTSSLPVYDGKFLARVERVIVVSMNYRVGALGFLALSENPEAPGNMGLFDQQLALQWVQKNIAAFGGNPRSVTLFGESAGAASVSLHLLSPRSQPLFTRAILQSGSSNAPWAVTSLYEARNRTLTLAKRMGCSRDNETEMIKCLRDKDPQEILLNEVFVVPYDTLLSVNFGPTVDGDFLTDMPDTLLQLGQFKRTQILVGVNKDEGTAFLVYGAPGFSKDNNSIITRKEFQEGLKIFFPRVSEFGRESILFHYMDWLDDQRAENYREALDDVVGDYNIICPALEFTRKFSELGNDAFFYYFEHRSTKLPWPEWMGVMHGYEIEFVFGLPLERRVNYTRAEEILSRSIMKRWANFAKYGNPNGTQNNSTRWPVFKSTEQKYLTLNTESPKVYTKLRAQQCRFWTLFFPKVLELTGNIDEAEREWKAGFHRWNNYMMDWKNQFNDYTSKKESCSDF
T3 sequence (Q9Y5N1 whole entry): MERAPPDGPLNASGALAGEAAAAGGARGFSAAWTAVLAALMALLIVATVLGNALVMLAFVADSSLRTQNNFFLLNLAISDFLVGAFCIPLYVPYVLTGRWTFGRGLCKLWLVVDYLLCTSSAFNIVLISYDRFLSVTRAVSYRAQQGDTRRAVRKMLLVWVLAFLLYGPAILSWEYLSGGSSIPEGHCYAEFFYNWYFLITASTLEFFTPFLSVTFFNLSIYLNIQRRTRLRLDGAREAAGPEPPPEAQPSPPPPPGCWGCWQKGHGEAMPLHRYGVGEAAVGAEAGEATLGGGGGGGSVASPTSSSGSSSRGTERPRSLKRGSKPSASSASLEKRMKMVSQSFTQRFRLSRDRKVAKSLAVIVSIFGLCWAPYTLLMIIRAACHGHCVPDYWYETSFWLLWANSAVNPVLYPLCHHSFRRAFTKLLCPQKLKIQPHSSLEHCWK

O=c1oc2cc(OCCCN3CCCCC3)ccc2cc1-c1cn(Cc2ccccc2)nn1 [Compound 1q, 3-(1-Benzyl-1H-1,2,3-triazol-4-yl)-7-(3-(piperidin-1-yl)propoxy)-2H-chromen-2-one]
IC50 (human AChE [hAChE]): 1410 nM
SI (human AChE [hAChE]): ~2 ^e,f
IC50 [1]: 3560 ± 190 nM
viability at 12.5 µM [2]: 68%
IC50 (hMAO-A; 95% confidence interval in brackets): 31100 nM
IC50 [3]: 1950 ± 86 nM
SI [3]: ~2 ^e,f
Ki (hH3R): 151 nM

O=c1oc2cc(OCCN3CCCCC3)ccc2cc1-c1cn(Cc2ccccc2)nn1 [Compound 1h, 3-(1-Benzyl-1H-1,2,3-triazol-4-yl)-7-(2-(piperidin-1-yl)ethoxy)-2H-chromen-2-one]
IC50 (human AChE [hAChE]): 115 nM
SI (human AChE [hAChE]): 33
IC50 [1]: 3790 ± 400 nM
neuroprotection against H2O2-induced oxidative stress ([2]; 12.5 µM): neuroprotective effects
viability at 12.5 µM [2]: 88%
inhibition at 1 µM (hMAO-A; test concentration of 1 µM, read-out: Percentage of MAO-A inhibition ± SEM): 5.2 ± 1.9%
IC50 [3]: 6.03 ± 0.62 nM
SI [3]: 632
Ki (hH3R): 558 nM

Reference: publication PMC12472947 (Pharmaceuticals, 2025)
